This is an account of results in paper PMC7464485, “Antimicrobial Activities of Highly Bioavailable Organic Salts and Ionic Liquids from Fluoroquinolones” (Pharmaceutics, 2020).

For series [1], the system named is Staphylococcus aureus (ATCC 25923). In words: Antimicrobial activity (growth, OD 600 nm). The format is cell-based.
Series [2] has as its system Bacillus subtilis (ATCC 6633). In words: Antimicrobial activity (growth, OD 600 nm). The format is cell-based.
The subject of series [3] is Klebsiella pneumoniae (ATCC 11296). Put plainly: Antimicrobial activity (growth, OD 600 nm). The format is cell-based.
Series [4] has as its system 3T3 mouse fibroblasts. In words: Cytotoxicity on 3T3 cells (MTT). The format is cell-based.
The nature of series [5]: Critical micelle concentration via ionic conductivity. The format is physicochemical. As to conditions: for CMC: in water at 25 °C.
For series [6] the following is noted: in water at 25 °C, cited from earlier work.
The conditions of series [7]: cited from earlier work.
[8] abbreviates: Staphylococcus aureus, ATCC25923, 0.001–10 µM, read-out: IC50 S. aureus.
[9] abbreviates: Bacillus subtilis, ATCC6633, 0.001–10 µM, read-out: IC50 B. subtilis.
[10] abbreviates: Klebsiella pneumoniae, ATCC11296, 0.001–10 µM, read-out: IC50 K. pneumoniae.
Where [11] appears, read: 0.001–10 µM, read-out: IC50 S. aureus.
Setting [12] is: relative decrease of inhibitory concentration vs norfloxacin.
The mark [13] stands for this setting: 0.001–10 µM, read-out: IC50 B. subtilis.
Where [14] appears, read: 0.001–10 µM, read-out: IC50 K. pneumoniae.
The mark [15] stands for this setting: relative decrease of inhibitory concentration vs ciprofloxacin.

Molecules are shown by their SMILES. In brackets after ≈: the same amount, converted by molar mass. Like-named read-outs stand apart in the source and are kept apart here.

In the case of `COCCn1cc[n+](C)c1` [[C3Omim]Cl, reference compound], the IC50 in series [1] (setting [8]), in series [2] (setting [9]) and in series [3] (setting [10]) was greater than 10000 nM throughout.

As for `CCn1cc(C(=O)[O-])c(=O)c2cc(F)c(N3CCNCC3)cc21.COCC[n+]1ccn(C)c1` [[C3OMIM][Nor]], the values for the IC50 in series [1] (setting [11]), in series [2] (setting [13]) and in series [3] (setting [14]) were 107 nM, 68.1 nM and 224 nM, respectively. In series [1] (setting [12]), the “RDIC50 S. aureus” value was 1.1. Besides, in series [2] (setting [12]), the “RDIC50 B. subtilis” value is recorded as 1.7. Besides, the “RDIC50 K. pneumoniae” value in series [3] (setting [12]) was determined as 1.1.

With `Cc1n(CCO)cc[n+]1C` [[C2OHDMIM]Cl, reference compound], the IC50 in series [1] (setting [8]), in series [2] (setting [9]) and in series [3] (setting [10]) was greater than 10000 nM in each case.

Take `CCCCCCCCCCCCCCCC[n+]1ccccc1.O=C([O-])c1cn(C2CC2)c2cc(N3CCNCC3)c(F)cc2c1=O` [[C16Py][Cip]]: the IC50 (as a rule, the midpoint of a concentration-inhibition curve) is 4.72 µM in series [4]; 4.72 µM in series [4] (0.03–10 µM, 24 h); 1430 nM in series [1] (setting [11]); 6.07 nM in series [2] (setting [13]); 9.88 nM in series [3] (setting [14]). In addition, the “activity against S. aureus” value in series [1] is given as “almost no activity”. For the same molecule, in series [1] (setting [15]), the “RDIC50 S. aureus” value is 0.0. The “decrease of activity against B. subtilis in comparison with ciprofloxacin” value in series [2] is 40%. For the same molecule, in series [2] (setting [15]), the “RDIC50 B. subtilis” value turned out to be 0.6. Also, in series [3] (setting [15]), the “RDIC50 K. pneumoniae” value turned out to be 19.9. In series [5], this molecule registered a CMC of 0.0816 mmol/L.

`CCCCCCCCCCCCCCCC[n+]1ccccc1.[Cl-]` [[C16Py]Cl]: the results for the CMC in series [6] (ref 49), in series [6] (ref 50) and in series [5] were 1.067 mmol/L, 0.96 mmol/L and 1.063 mmol/L, respectively.

Regarding `CCn1cc(C(=O)[O-])c(=O)c2cc(F)c(N3CCNCC3)cc21.CCn1cc[n+](C)c1` [[EMIM][Nor]], the half-inhibitory concentration (IC50) in series [1] (setting [11]) was 211 nM; in series [2] (setting [13]), 24.5 nM; in series [3] (setting [14]), 208 nM. For the same molecule, the “RDIC50 S. aureus” value in series [1] (setting [12]) is 0.6. For the same molecule, in series [2] (setting [12]), the “RDIC50 B. subtilis” value is reported as 4.8. Moreover, in series [3] (setting [12]), the “RDIC50 K. pneumoniae” value is listed as 1.2.

On to `C[N+](C)(C)CCO.O=C([O-])c1cn(C2CC2)c2cc(N3CCNCC3)c(F)cc2c1=O` [[Ch][Cip]], for which the IC50 in series [1] (setting [11]) was found to be 181 nM; in series [2] (setting [13]), 20.6 nM; in series [3] (setting [14]), 51.1 nM. In series [1] (setting [15]), the “RDIC50 S. aureus” value is reported as 0.2. In addition, in series [2] (setting [15]), the “RDIC50 B. subtilis” value worked out at 0.2.

For `C[N+](C)(C)CCO.[Cl-]` [[Ch]Cl, reference compound], the IC50 in series [1] (Staphylococcus aureus, ATCC25923, read-out: IC50 S. aureus) is greater than 10000 nM; in series [2] (Bacillus subtilis, ATCC6633, read-out: IC50 B. subtilis) it was greater than 10000 nM; in series [3] (Klebsiella pneumoniae, ATCC11296, read-out: IC50 K. pneumoniae, 0.001–10 µM), greater than 10000 nM.

Turning to `CCn1cc(C(=O)[O-])c(=O)c2cc(F)c(N3CCNCC3)cc21.C[n+]1ccn(CCO)c1` [[C2OHMIM][Nor]], the IC50 in series [1] (setting [11]) came to 91.7 nM; in series [2] (setting [13]), 88.6 nM; in series [3] (setting [14]), 201 nM. Also, the “RDIC50 S. aureus” value in series [1] (setting [12]) stood at 1.3. Also, the “RDIC50 B. subtilis” value in series [2] (setting [12]) is recorded as 1.3. Moreover, in series [3] (setting [12]), the “RDIC50 K. pneumoniae” value is 1.3.

With `CCn1cc[n+](C)c1.O=C([O-])c1cn(C2CC2)c2cc(N3CCNCC3)c(F)cc2c1=O` [[EMIM][Cip]], the 50% inhibitory concentration (IC50) in series [1] (setting [11]) stood at 24.2 nM; in series [2] (setting [13]) it was 16.2 nM; in series [3] (setting [14]), 64.8 nM. For the same molecule, in series [1] (setting [15]), the “RDIC50 S. aureus” value turned out to be 1.2. Moreover, in series [2] (setting [15]), the “RDIC50 B. subtilis” value is 0.2. Further, the “RDIC50 K. pneumoniae” value in series [3] (setting [15]) was determined as 3.0.

For `C[n+]1ccn(CCO)c1.O=C([O-])c1cn(C2CC2)c2cc(N3CCNCC3)c(F)cc2c1=O` [[C2OHMIM][Cip]], the IC50 in series [2] (setting [13]) was 15.8 nM; in series [3] (setting [14]), 36.4 nM. In addition, in series [2] (setting [15]), the “RDIC50 B. subtilis” value stood at 0.2. Moreover, in series [3] (setting [15]), the “RDIC50 K. pneumoniae” value is recorded as 5.4.

Regarding `CCn1cc[n+](C)c1` [[EMIM]Br, reference compound], the IC50 in series [1] (setting [8]), in series [2] (setting [9]) and in series [3] (setting [10]) was greater than 10000 nM in each case.

As to `COCC[n+]1ccn(C)c1.O=C([O-])c1cn(C2CC2)c2cc(N3CCNCC3)c(F)cc2c1=O` [[C3OMIM][Cip]], the IC50 in series [1] (setting [11]) was 82 nM; in series [2] (setting [13]), 21.7 nM; in series [3] (setting [14]), 47.6 nM. For the same molecule, the “RDIC50 S. aureus” value in series [1] (setting [15]) is given as 0.4. In series [2] (setting [15]), the “RDIC50 B. subtilis” value came out at 0.2. Further, the “RDIC50 K. pneumoniae” value in series [3] (setting [15]) amounted to 4.1.

On to `O=C(O)c1cn(C2CC2)c2cc(N3CCNCC3)c(F)cc2c1=O` [Ciprofloxacin, ciprofloxacin, reference compound], for which the IC50 in series [1] (setting [8]) amounted to 29.2 nM; in series [2] (setting [9]), 3.84 nM; in series [3] (setting [10]), 196 nM.

Take `Cc1n(CCO)cc[n+]1C.O=C([O-])c1cn(C2CC2)c2cc(N3CCNCC3)c(F)cc2c1=O` [[C2OHDMIM][Cip]]: the IC50 in series [1] (setting [11]) was determined as 21.2 nM; in series [2] (setting [13]), 12.3 nM; in series [3] (setting [14]), 51 nM. In addition, the “RDIC50 S. aureus” value in series [1] (setting [15]) amounted to 1.4. The “RDIC50 B. subtilis” value in series [2] (setting [15]) is listed as 0.3. The “RDIC50 K. pneumoniae” value in series [3] (setting [15]) is reported as 3.9.

Turning to `CCCCCCCCCCCCCCCC[n+]1ccccc1.CCn1cc(C(=O)[O-])c(=O)c2cc(F)c(N3CCNCC3)cc21` [[C16Py][Nor]], the IC50 came to 5.17 µM in series [4]; 5.17 µM in series [4] (0.03–10 µM, 24 h); 10.8 nM in series [1] (setting [11]); 87.3 nM in series [2] (setting [13]); 203 nM in series [3] (setting [14]). Besides, in series [1] (setting [12]), the “RDIC50 S. aureus” value was determined as 11.4. For the same molecule, the “RDIC50 B. subtilis” value in series [2] (setting [12]) was 1.3. In addition, the “increase in activity against K. pneumoniae vs norfloxacin” value in series [3] worked out at 30%. The “RDIC50 K. pneumoniae” value in series [3] (setting [12]) is reported as 1.3. Besides, in series [5], the “decrease of CMC in comparison with [C16Py]Cl” value is 95%. The CMC in series [5] is given as 0.0539 mmol/L.

Take `CCn1cc(C(=O)[O-])c(=O)c2cc(F)c(N3CCNCC3)cc21.C[N+](C)(C)CCO` [[Ch][Nor]]: the IC50 in series [1] (setting [11]) was 127 nM; in series [2] (setting [13]), 95.5 nM; in series [3] (setting [14]), 199 nM. The “RDIC50 S. aureus” value in series [1] (setting [12]) stood at 1.0. In addition, in series [2] (setting [12]), the “RDIC50 B. subtilis” value was determined as 1.2. In addition, the “RDIC50 K. pneumoniae” value in series [3] (setting [12]) is on record as 1.3.

On to `CCn1cc(C(=O)O)c(=O)c2cc(F)c(N3CCNCC3)cc21` [Norfloxacin, norfloxacin, reference compound], for which the IC50 in series [1] (setting [8]) came to 123 nM; in series [2] (0.001–10 µM, listed as Nor, read-out: IC50 B. subtilis), 117 nM; in series [2] (setting [9]), 97.7 nM; in series [3] (setting [10]) it was 255 nM. The Solubility in water in series [7] (25 °C, neutral form) is reported as 0.37 mg/mL (≈ 1160 µM); in series [7] (25 °C, value outside parentheses), 0.54 ± 0.02 mg/mL (≈ 1690 µM); in series [7] (37 °C, value in parentheses), 0.85 ± 0.04 mg/mL (≈ 2660 µM); in series [7] (37 °C, value outside parentheses), 0.84 ± 0.02 mg/mL (≈ 2630 µM).

With `C[n+]1ccn(CCO)c1` [[C2OHmim]Cl, reference compound], the IC50 in series [1] (setting [8]), in series [2] (setting [9]) and in series [3] (setting [10]) was greater than 10000 nM each time.

On to `CCn1cc(C(=O)[O-])c(=O)c2cc(F)c(N3CCNCC3)cc21.Cc1n(CCO)cc[n+]1C` [[C2OHDMIM][Nor]], for which the “increased activity against S. aureus vs norfloxacin” value in series [1] is 60%. Further, the IC50 was determined as 79.5 nM in series [1] (setting [11]), 149 nM in series [2] (setting [13]) and 178 nM in series [3] (setting [14]). Moreover, in series [1] (setting [12]), the “RDIC50 S. aureus” value came to 1.6. In addition, in series [2], the “lost activity against B. subtilis vs norfloxacin” value is 20%. For the same molecule, in series [2] (setting [12]), the “RDIC50 B. subtilis” value turned out to be 0.8. The “increase in activity against K. pneumoniae vs norfloxacin” value in series [3] is reported as 40%. Also, the “RDIC50 K. pneumoniae” value in series [3] (setting [12]) is recorded as 1.4.
